Data taken from patent US7816406B2, “Quinolone analogs” (Cylene Pharmaceuticals, Inc., priority 2004, dated 2010).

Assays:
Type in all cases: cell-based
MiaPaca = assay: MTS cell proliferation assay, MiaPaca; settings: Homo sapiens, MIA PaCa-2, M CELL MiaPaca, Table 1C
Method: MTS assays. Antiproliferative effects of anticancer drugs are tested by the CellTiter 96 AQueous assay (Promega, WI), which is a colorimetric assay for determining the number of viable cells. (See, e.g., Wang, L., et al., Methods Cell Sci (1996) 18:249-255). Generally, cells (2,000 to 5,000 cells/well) are seeded on 96 well flat bottom plates (Corning, NY) in 100 μl of culture medium without any anticancer drug on day 0, and the culture medium is exchanged for that contained anticancer drugs at various concentrations on day 1. After incubation for 3 days under normal growth conditions (on day 4), the monolayers are washed once in PBS, and the medium is switched to 100 μl of PBS in each of the 96 well plate. After mixing MTS and PMS at the ratio of 20:1, 20 μl of MTS/PMS solution is added to each of the 96 well plate and incubated for 4 hours in a humidified atmosphere of 5% CO2 at 37° C. The absorbance is read at 490 nm using FLUOstar Galaxy 96 well plate reader (BMG Labtechnologies, Germany).

Hela = assay: TumorCell MeanTimeSurvival (Alamar Blue Stain), Hela; settings: Homo sapiens
PC3 = assay: TumorCell MeanTimeSurvival (Alamar Blue Stain), PC3; settings: Homo sapiens, PC-3
HCT-116 = assay: TumorCell MeanTimeSurvival (Alamar Blue Stain), HCT-116; settings: Homo sapiens

| Compound | IC50 (MiaPaca) | IC50 (Hela) | IC50 (PC3) | IC50 (HCT-116) |
| --- | --- | --- | --- | --- |
| O=C(NCCN1CCCC1)c1c(=O)c2ccc(N3CCN(c4ncccn4)CC3)nc2n2c1sc1ccc(Cl)cc12 [drawing 286] | 2500 nM | – | – | – |
| CC(C)Nc1ncc2c(=O)c(C(=O)NCCN3CCCC3)c3sc4ccccc4n3c2n1 [drawing 330] | 110 nM | – | – | – |
| CN1CCCC1CCNC(=O)c1c(=O)c2ccc(N3CCNCC3)nc2n2c1sc1ccccc12 (stereo not drawn) [drawing 358] | 10 nM | – | – | – |
| CN1CCCC1CCNC(=O)c1c(=O)c2cc(F)c(SCCc3cnccn3)cc2n2c1sc1ccccc12 (stereo not drawn) [drawing 471] | – | 2800 nM | 2700 nM | 1100 nM |
| O=C(NCCN1CCCC1)c1c(=O)c2cc(F)c(SCCc3cnccn3)cc2n2c1sc1ccccc12 [drawing 472] | – | 2700 nM | 520 nM | 570 nM |
